Assay results reported in PubChem BioAssay (NCI).
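Method: 48-hour compound exposure of cells in 96-well plates, five concentrations, linear interpolation of endpoints. GI50 = concentration required for 50% inhibition of growth. At the TGI there is no net growth.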

Experiments:
Assay in all cases: NCI anticancer screen, dose series, 48 h
HOP-92 NSCLC = tested on: HOP-92 NSCLC
MDA-MB-435 = tested on: MDA-MB-435
NCI-H23 lung = tested on: NCI-H23 lung
NCI-H522 lung = tested on: NCI-H522 lung
SF-268 CNS = tested on: SF-268 CNS
SF-539 CNS = tested on: SF-539 CNS
SK-MEL-2 melanoma = tested on: SK-MEL-2 melanoma
SNB-19 CNS = tested on: SNB-19 CNS
TK-10 renal = tested on: TK-10 renal
UACC-257 melanoma = tested on: UACC-257 melanoma

| SMILES | GI50 (HOP-92 NSCLC) [µM] | TGI (HOP-92 NSCLC) [µM] | GI50 (MDA-MB-435) [µM] | TGI (MDA-MB-435) [µM] | GI50 (NCI-H23 lung) [µM] | TGI (NCI-H23 lung) [µM] | GI50 (NCI-H522 lung) [µM] | TGI (NCI-H522 lung) [µM] | GI50 (SF-268 CNS) [µM] | TGI (SF-268 CNS) [µM] | GI50 (SF-539 CNS) [µM] | TGI (SF-539 CNS) [µM] | GI50 (SK-MEL-2 melanoma) [µM] | TGI (SK-MEL-2 melanoma) [µM] | GI50 (SNB-19 CNS) [µM] | TGI (SNB-19 CNS) [µM] | GI50 (TK-10 renal) [µM] | TGI (TK-10 renal) [µM] | GI50 (UACC-257 melanoma) [µM] | TGI (UACC-257 melanoma) [µM] |
| --- | --- | --- | --- | --- | --- | --- | --- | --- | --- | --- | --- | --- | --- | --- | --- | --- | --- | --- | --- | --- |
| [2H]c1nc(=Nc2cc(NC(=O)C=C)c(N(C)CCN(C)C)cc2OC)[nH]c(-c2cn(C([2H])([2H])[2H])c3ccccc23)c1[2H] | 1.04 | 2.45 | 1.62 | 3.09 | 3.14 | 15.5 | 0.265 | 2.24 | 1.98 | 13 | 1.47 | 2.96 | 1.73 | 3.65 | 1.4 | 3.05 | 0.0802 | 3.8 | 2.19 | 3.88 |
| Nc1cc(-c2ccc(Cl)cc2)nn1-c1nnc(/C=C/c2ccco2)c(=O)[nH]1 | 2.6 | 16.7 | 5.9 | > 100 | 7.73 | 63.5 | 8.95 | 40.3 | 3.37 | 39 | 4.4 | 22.4 | 19 | > 88.3 | 5.11 | > 83.3 | 5.6 | 36.1 | 6.55 | 47.3 |
| O=C1/C(=C/c2ccc([N+](=O)[O-])cc2)COc2ccc(O)cc21 | 38.6 | > 100 | 5.21 | 29.7 | 7.83 | 36.3 | 2.05 | 6.05 | 15.3 | > 100 | 4.42 | 18.3 | 73 | > 100 | 4.29 | 30.8 | 26.2 | > 100 | 32.1 | > 100 |
| O=C1c2cccc3cccc(c23)C(=O)N1O |  | 94.5 |  | > 100 |  | > 100 |  | > 100 |  | > 100 |  | > 100 |  | > 100 |  | > 100 |  | > 100 |  | > 100 |
| Cc1ccc(NC(=O)/C(Cc2nc3ccc([N+](=O)[O-])cc3[nH]c2=O)=N\NC(=O)C[n+]2ccccc2)c(C)c1 |  | > 100 |  | > 100 |  | > 100 |  | 61.6 |  | > 100 |  | > 100 |  | > 100 |  | > 100 |  | 64.4 |  | > 100 |
| Cc1cc(C)n(C2=NS(=O)(=O)c3ccccc3N2C)n1 |  | > 100 |  | > 100 |  | > 100 |  | > 100 |  | > 100 |  | > 100 |  | > 100 |  | > 100 |  | > 100 |  | > 100 |
| Cc1c(C)c(CC(=O)N2CC2)c(C)c(C)c1CC(=O)N1CC1 |  | 44.9 |  | 33.6 |  | 39.4 |  | 27.1 |  | 23.1 |  | 16.5 |  | 32.6 |  | > 100 |  | > 83 |  | 50 |
| O=C1c2ccccc2-c2c1c1c(NCCCO)nc3ccccc3c1n2Cc1ccccc1 | 12.3 | 27.6 | 36 | > 100 | 14.4 | 34.9 | 26 | 96.3 | 22.7 | 51.9 | 18.5 | 36.7 | 20.4 | 52.3 | 27.8 | 73.1 | 23 | 41.1 | 41.3 | > 100 |
